ChEMBL document CHEMBL1909046, “DrugMatrix in vitro pharmacology data”

Key:
[1] = molecular target: Beta-3 adrenergic receptor (Homo sapiens, UniProt P13945); experiment: DRUGMATRIX: Adrenergic beta3 radioligand binding (ligand: [125I] Cyanopindolol); format: cell membranes, HEK293, Membrane; conditions: hek293; Not Active = under 50% inhibition at 10 µM
Cannabinoid receptor 1 = Cannabinoid receptor 1 (Homo sapiens, UniProt P21554); format: cell membranes, Chem-1, Membrane; conditions: chem-1; also: in other assays of this panel Not Active means under 50% inhibition at 10 µM
Sequence of Cannabinoid receptor 1 (P21554 whole entry): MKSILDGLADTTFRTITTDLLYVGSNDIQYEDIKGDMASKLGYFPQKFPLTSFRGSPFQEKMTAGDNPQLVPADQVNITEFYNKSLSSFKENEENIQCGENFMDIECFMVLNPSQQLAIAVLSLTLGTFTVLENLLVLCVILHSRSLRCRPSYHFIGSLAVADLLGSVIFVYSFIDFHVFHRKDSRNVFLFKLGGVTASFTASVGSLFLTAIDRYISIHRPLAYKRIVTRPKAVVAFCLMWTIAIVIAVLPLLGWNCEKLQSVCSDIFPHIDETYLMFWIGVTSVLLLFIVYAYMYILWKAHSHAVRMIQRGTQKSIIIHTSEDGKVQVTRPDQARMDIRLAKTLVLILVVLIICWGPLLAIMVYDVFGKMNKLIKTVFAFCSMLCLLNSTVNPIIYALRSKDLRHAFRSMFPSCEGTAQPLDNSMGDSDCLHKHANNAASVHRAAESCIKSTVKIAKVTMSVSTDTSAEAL

[2] = molecular target: T1, C-X-C chemokine receptor type 1 (Homo sapiens, UniProt P25024); also: in other assays of this panel Not Active means under 50% inhibition at 10 µM
T1 sequence (P25024 whole entry): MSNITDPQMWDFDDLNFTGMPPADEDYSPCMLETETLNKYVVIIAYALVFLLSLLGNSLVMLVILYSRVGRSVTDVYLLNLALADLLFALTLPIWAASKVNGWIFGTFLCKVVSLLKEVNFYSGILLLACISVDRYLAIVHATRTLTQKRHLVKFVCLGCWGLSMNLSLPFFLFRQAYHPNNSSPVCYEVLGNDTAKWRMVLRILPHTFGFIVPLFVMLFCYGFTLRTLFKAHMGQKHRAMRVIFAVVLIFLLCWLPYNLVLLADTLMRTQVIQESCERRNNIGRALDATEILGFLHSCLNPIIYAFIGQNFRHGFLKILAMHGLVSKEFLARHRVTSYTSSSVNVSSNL

[3] = molecular target: T2, Cholecystokinin receptor type A (Homo sapiens, UniProt P32238); format: cell membranes, Membrane; conditions: 1321-n1; also: in other assays of this panel Not Active means under 50% inhibition at 10 µM
T2 sequence (P32238 whole entry): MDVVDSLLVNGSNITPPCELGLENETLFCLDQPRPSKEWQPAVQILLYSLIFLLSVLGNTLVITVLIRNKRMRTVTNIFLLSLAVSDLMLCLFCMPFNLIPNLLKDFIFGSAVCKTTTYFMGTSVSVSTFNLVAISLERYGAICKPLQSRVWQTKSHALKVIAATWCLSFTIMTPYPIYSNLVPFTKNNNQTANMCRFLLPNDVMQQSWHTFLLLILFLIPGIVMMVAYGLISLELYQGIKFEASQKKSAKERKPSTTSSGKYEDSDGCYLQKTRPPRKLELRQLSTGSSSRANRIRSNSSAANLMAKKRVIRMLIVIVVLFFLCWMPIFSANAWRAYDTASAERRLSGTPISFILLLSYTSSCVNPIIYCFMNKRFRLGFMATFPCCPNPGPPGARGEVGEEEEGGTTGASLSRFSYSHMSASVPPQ

[4] = DRUGMATRIX: Phosphodiesterase PDE3 enzyme inhibition (substrate: [3H]cAMP + cAMP); format: tissue-based, Homo sapiens; conditions: platelet; Not Active = under 50% inhibition at 10 µM
Cytochrome P450 1A2 = molecular target: T3, Cytochrome P450 1A2 (Homo sapiens, UniProt P05177); conditions: bti-tn-5b1-4; also: in other assays of this panel Not Active means under 50% inhibition at 10 µM
T3 sequence (P05177 whole entry): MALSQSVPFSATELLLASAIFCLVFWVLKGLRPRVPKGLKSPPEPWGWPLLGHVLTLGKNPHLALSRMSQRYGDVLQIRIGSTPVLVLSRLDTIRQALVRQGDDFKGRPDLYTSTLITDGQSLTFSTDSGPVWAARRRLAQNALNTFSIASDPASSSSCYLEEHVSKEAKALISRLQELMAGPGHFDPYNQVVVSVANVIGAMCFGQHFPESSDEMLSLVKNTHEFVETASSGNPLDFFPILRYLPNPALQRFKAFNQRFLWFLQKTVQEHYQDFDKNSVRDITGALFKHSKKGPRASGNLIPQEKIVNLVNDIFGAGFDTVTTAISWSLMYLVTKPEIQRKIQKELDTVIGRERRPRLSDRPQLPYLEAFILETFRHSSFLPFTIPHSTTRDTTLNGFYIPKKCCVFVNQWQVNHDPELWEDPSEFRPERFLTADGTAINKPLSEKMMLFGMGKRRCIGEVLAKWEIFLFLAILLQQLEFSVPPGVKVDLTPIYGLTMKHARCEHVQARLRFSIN

Glucocorticoid receptor = molecular target: T4, Glucocorticoid receptor (Homo sapiens, UniProt P04150); conditions: hela s3; also: in other assays of this panel Not Active means under 50% inhibition at 10 µM
T4 sequence (P04150 whole entry): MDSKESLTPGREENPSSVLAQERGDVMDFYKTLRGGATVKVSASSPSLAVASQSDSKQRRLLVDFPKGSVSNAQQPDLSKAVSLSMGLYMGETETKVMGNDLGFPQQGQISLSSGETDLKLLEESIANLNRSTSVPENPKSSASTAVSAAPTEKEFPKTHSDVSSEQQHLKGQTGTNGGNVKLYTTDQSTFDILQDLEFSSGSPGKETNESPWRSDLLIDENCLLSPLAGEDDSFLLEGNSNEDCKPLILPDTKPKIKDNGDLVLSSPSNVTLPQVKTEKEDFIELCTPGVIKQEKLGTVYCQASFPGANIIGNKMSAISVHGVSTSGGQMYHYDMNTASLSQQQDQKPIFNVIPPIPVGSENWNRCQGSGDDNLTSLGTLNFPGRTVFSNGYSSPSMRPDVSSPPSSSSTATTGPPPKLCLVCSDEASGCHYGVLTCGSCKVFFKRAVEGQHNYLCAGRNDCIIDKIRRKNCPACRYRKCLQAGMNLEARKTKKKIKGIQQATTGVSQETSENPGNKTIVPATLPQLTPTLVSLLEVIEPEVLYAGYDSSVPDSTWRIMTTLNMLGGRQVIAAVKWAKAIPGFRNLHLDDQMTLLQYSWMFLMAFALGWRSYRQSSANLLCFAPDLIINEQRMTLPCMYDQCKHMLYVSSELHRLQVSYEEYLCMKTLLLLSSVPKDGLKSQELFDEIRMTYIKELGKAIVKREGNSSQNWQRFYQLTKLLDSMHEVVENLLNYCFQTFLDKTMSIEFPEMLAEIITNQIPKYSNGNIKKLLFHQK

Sequence of Beta-3 adrenergic receptor (P13945 whole entry): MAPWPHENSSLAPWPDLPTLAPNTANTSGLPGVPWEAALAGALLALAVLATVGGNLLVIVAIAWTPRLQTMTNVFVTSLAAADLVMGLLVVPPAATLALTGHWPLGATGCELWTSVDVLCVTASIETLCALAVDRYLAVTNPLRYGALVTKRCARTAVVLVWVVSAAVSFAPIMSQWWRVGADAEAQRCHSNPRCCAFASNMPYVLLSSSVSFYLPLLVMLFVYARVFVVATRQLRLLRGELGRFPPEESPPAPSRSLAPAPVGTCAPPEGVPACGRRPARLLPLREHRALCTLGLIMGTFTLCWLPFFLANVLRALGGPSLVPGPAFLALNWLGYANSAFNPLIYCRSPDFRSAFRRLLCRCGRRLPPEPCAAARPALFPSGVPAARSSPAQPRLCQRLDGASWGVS

C[C@]12CC[C@@H](O)C[C@@H]1CC[C@@H]1[C@@H]2CC[C@]2(C)C(=O)CC[C@@H]12 [ANDROSTERONE]
Not Active: IC50 [1] | IC50 (Cannabinoid receptor 1) | IC50 [2] | IC50 [3] | IC50 [4] | Ki [4] | IC50 (Cytochrome P450 1A2) | Ki (Cytochrome P450 1A2) | IC50 (Glucocorticoid receptor)

C[C@H](C(=O)O)c1ccc2oc(-c3ccc(F)cc3)nc2c1 [FLUNOXAPROFEN]
Not Active: IC50 [1] | IC50 (Cannabinoid receptor 1) | IC50 [2] | IC50 [3] | IC50 [4] | Ki [4] | IC50 (Cytochrome P450 1A2) | Ki (Cytochrome P450 1A2) | IC50 (Glucocorticoid receptor)

COPPER(II) OXIDE
Not Active: IC50 [1] | Ki [1] | IC50 (Cannabinoid receptor 1) | Ki (Cannabinoid receptor 1) | IC50 [2] | Ki [2] | IC50 [3] | Ki [3] | IC50 [4] | Ki [4] | IC50 (Cytochrome P450 1A2) | Ki (Cytochrome P450 1A2) | IC50 (Glucocorticoid receptor) | Ki (Glucocorticoid receptor)

NC(=O)CN1CCCC1=O
Not Active: IC50 [1] | IC50 (Cannabinoid receptor 1) | IC50 [2] | IC50 [3] | IC50 [4] | Ki [4] | IC50 (Cytochrome P450 1A2) | Ki (Cytochrome P450 1A2) | IC50 (Glucocorticoid receptor)

O=C1c2ccccc2C(=O)C1c1ccccc1 [PHENINDIONE]
Not Active: IC50 [1] | IC50 (Cannabinoid receptor 1) | IC50 [2] | IC50 [3] | IC50 [4] | Ki [4] | IC50 (Cytochrome P450 1A2) | Ki (Cytochrome P450 1A2) | IC50 (Glucocorticoid receptor)

COc1cc(/C=C/C(=O)O)ccc1O [FERULATE]
Not Active: IC50 [1] | IC50 (Cannabinoid receptor 1) | IC50 [2] | IC50 [3] | IC50 [4] | Ki [4] | IC50 (Cytochrome P450 1A2) | Ki (Cytochrome P450 1A2) | IC50 (Glucocorticoid receptor)

O=c1[nH]c2ccccc2c2ccccc12
Not Active: IC50 [1] | IC50 (Cannabinoid receptor 1) | IC50 [2] | IC50 [3] | IC50 [4] | Ki [4] | IC50 (Glucocorticoid receptor)

COc1ccc(C[C@H](N)C(=O)N[C@H]2[C@@H](O)[C@H](n3cnc4c(N(C)C)ncnc43)O[C@@H]2CO)cc1 [PUROMYCIN]
Not Active: IC50 [1] | IC50 (Cannabinoid receptor 1) | IC50 [2] | IC50 [3] | IC50 [4] | Ki [4] | IC50 (Cytochrome P450 1A2) | Ki (Cytochrome P450 1A2) | IC50 (Glucocorticoid receptor)

NC(=O)NC(=O)Cc1ccccc1 [PHENACEMIDE]
Not Active: IC50 [1] | IC50 (Cannabinoid receptor 1) | IC50 [2] | IC50 [3] | IC50 [4] | Ki [4] | IC50 (Cytochrome P450 1A2) | Ki (Cytochrome P450 1A2) | IC50 (Glucocorticoid receptor)

COc1ccccc1OCCNCC(O)COc1cccc2[nH]c3ccccc3c12 (stereo not drawn) [CARVEDILOL]
Not Active: IC50 (Cannabinoid receptor 1) | IC50 [2] | IC50 [3] | IC50 [4] | Ki [4] | IC50 (Cytochrome P450 1A2) | Ki (Cytochrome P450 1A2) | IC50 (Glucocorticoid receptor)

CC(N)Cc1c[nH]c2ccc(OCc3cccs3)cc12 (stereo not drawn) [BW-723C86]
Not Active: IC50 [1] | IC50 (Cannabinoid receptor 1) | IC50 [2] | IC50 [3] | IC50 [4] | Ki [4] | IC50 (Glucocorticoid receptor)

CC(=O)Nc1ccc2c(c1)Cc1ccccc1-2 [2-ACETYLAMINOFLUORENE]
Not Active: IC50 [1] | IC50 (Cannabinoid receptor 1) | IC50 [2] | IC50 [3] | IC50 [4] | Ki [4] | IC50 (Glucocorticoid receptor)

CCN(CCO)CCCC(C)Nc1ccnc2cc(Cl)ccc12 (stereo not drawn) [HYDROXYCHLOROQUINE]
Not Active: IC50 [1] | IC50 (Cannabinoid receptor 1) | IC50 [2] | IC50 [3] | IC50 [4] | Ki [4] | IC50 (Glucocorticoid receptor)

c1ccc(Cn2ccnc2)cc1
Not Active: IC50 [1] | IC50 (Cannabinoid receptor 1) | IC50 [2] | IC50 [3] | IC50 [4] | Ki [4] | IC50 (Glucocorticoid receptor)

CNC[C@H](O)c1ccc(O)c(O)c1 [EPINEPHRINE]
Not Active: IC50 [1] | IC50 (Cannabinoid receptor 1) | IC50 [2] | IC50 [3] | IC50 [4] | Ki [4] | IC50 (Cytochrome P450 1A2) | Ki (Cytochrome P450 1A2)

CC(CN1c2ccccc2Sc2ccccc21)N(C)C (stereo not drawn) [PROMETHAZINE]
Not Active: IC50 [1] | IC50 (Cannabinoid receptor 1) | IC50 [2] | IC50 [3] | IC50 [4] | Ki [4] | IC50 (Cytochrome P450 1A2) | Ki (Cytochrome P450 1A2)

O=C(O)CNCP(=O)(O)O [GLYPHOSATE]
Not Active: IC50 [1] | IC50 (Cannabinoid receptor 1) | IC50 [2] | IC50 [3] | IC50 [4] | Ki [4] | IC50 (Glucocorticoid receptor)
